Source: patent publication US11000033B2, “Ketone or oxime compound, and herbicide” (NISSAN CHEMICAL CORPORATION, priority 2014, dated 2021)

Assays:
Assay type in all cases: in vivo
Chenopodium album = test: Test Example 5: herbicidal effect by foliage application, plastic box (symbol O); conditions: 320 g/ha, 3 weeks after application
In short: (§1)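 Post-emergence spray; diluvial soil (sterilized), ~1.5 cm seed cover; greenhouse 25–30° C; 14-day-old plants; water-diluted emulsion at predetermined dose; visual score at 3 wk post-treatment.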

rapeseed [1] = test: Test Example 4: effect on crop by soil treatment (symbol g); conditions: application herbicide amount 320 g/ha
In short: (§2)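 Plants grew in a 25° C. to 30° C. greenhouse after spot-sowing of seeds, including beet, rapeseed, wheat and rice, into sterilized diluvial soil under roughly 1.5 cm of cover soil.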

beet = test: Test Example 4: effect on crop by soil treatment (symbol f); conditions: application herbicide amount 320 g/ha
In short: as §2

[2] = tested on: Echinochloa crus-galli var. crus-galli; test: Test Example 4: herbicidal effect by soil treatment (symbol H); conditions: application herbicide amount 320 g/ha
In short: (§3)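 Seeds were sown in sterilized diluvial soil, covered with about 1.5 cm of soil, and the soil surface was sprayed with a water-diluted emulsion of the compound at a predetermined rate. Plants grew in a greenhouse at 25° C. to 30° C.; effects were scored visually 3 weeks after application.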

Lolium multiflorum Lam. [3] = test: Test Example 5: herbicidal effect by foliage application, plastic box (symbol K); conditions: 320 g/ha, 3 weeks after application
In short: as §1

rapeseed [4] = test: Test Example 5: effect on crop by foliage application, plastic box (symbol g); conditions: 320 g/ha, 3 weeks after application
In short: (§4)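 Greenhouse culture at 25° C. to 30° C. followed spot-like sowing into sterilized diluvial soil, with seed covered by roughly 1.5 cm of soil.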

Avena fatua [5] = test: Test Example 4: herbicidal effect by soil treatment (symbol I); conditions: application herbicide amount 320 g/ha
In short: as §3

Veronica persica = test: Test Example 5: herbicidal effect by foliage application, plastic box (symbol R); conditions: 320 g/ha, 3 weeks after application
In short: as §1

Abutilon theophrasti = test: Test Example 5: herbicidal effect by foliage application, plastic box (symbol M); conditions: 320 g/ha, 3 weeks after application
In short: as §1

Lolium multiflorum Lam. [6] = test: Test Example 4: herbicidal effect by soil treatment (symbol K); conditions: application herbicide amount 320 g/ha
In short: as §3

Alopecurus myosuroides = test: Test Example 4: herbicidal effect by soil treatment (symbol J); conditions: application herbicide amount 320 g/ha
In short: as §3

Digitaria ciliaris [7] = test: Test Example 5: herbicidal effect by foliage application, plastic box (symbol F); conditions: 320 g/ha, 3 weeks after application
In short: as §1

Avena fatua [8] = test: Test Example 5: herbicidal effect by foliage application, plastic box (symbol I); conditions: 320 g/ha, 3 weeks after application
In short: as §1

wheat = test: Test Example 5: effect on crop by foliage application, plastic box (symbol e); conditions: 320 g/ha, 3 weeks after application
In short: as §4

[9] = tested on: directly sowed rice plant; test: Test Example 3: effect on crop by foliage application, Wagner pot (symbol b); conditions: application herbicide amount 320 g/ha
In short: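 Wagner pot (1/10000 are), alluvial soil, submerged 0.1–0.5 cm; sown E. crus-galli var. crus-galli, L. chinensis, C. difformis, rice; greenhouse 25–30 °C.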

rice = test: Test Example 4: effect on crop by soil treatment (symbol b); conditions: application herbicide amount 320 g/ha
In short: as §2

Apera spica-venti = test: Test Example 5: herbicidal effect by foliage application, plastic box (symbol L); conditions: 320 g/ha, 3 weeks after application
In short: as §1

Amaranthus retroflexus = test: Test Example 5: herbicidal effect by foliage application, plastic box (symbol N); conditions: 320 g/ha, 3 weeks after application
In short: as §1

Stellaria media = test: Test Example 5: herbicidal effect by foliage application, plastic box (symbol P); conditions: 320 g/ha, 3 weeks after application
In short: as §1

Digitaria ciliaris [10] = test: Test Example 4: herbicidal effect by soil treatment (symbol F); conditions: application herbicide amount 320 g/ha
In short: as §3

Monochoria vaginalis = test: Test Example 2: herbicidal activity, application during weed generation in submerged conditions (symbol C); conditions: Table 23; application herbicide amount 320 g/ha; grade 0-5 by criteria of Test Example 1
In short: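 Read-out: herbicidal effect on each species rated on a visual scale 3 weeks after treatment. Plants were raised together from seed in flooded alluvial soil (4 cm water) at 25° C. to 30° C. and treated at one to two leaves by water-surface application of diluted emulsion.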

Galium spurium = test: Test Example 5: herbicidal effect by foliage application, plastic box (symbol Q); conditions: 320 g/ha, 3 weeks after application
In short: as §1

SMILES	O: Chenopodium album, herbicidal effect (criteria of Test Example 1) (Chenopodium album)	K: Lolium multiflorum Lam., herbicidal effect (criteria of Test Example 1) (Lolium multiflorum Lam. [3])	g: rapeseed, effect on crop (criteria of Test Example 1) (rapeseed [4])	R: Veronica persica, herbicidal effect (criteria of Test Example 1) (Veronica persica)	I: Avena fatua, herbicidal effect (criteria of Test Example 1) (Avena fatua [8])	e: wheat, effect on crop (criteria of Test Example 1) (wheat)	effect on crop b (directly sowed rice plant), grade 0-5 [9]	L: Apera spica-venti, herbicidal effect (criteria of Test Example 1) (Apera spica-venti)	P: Stellaria media, herbicidal effect (criteria of Test Example 1) (Stellaria media)	Herbicidal effect grade, C: Monochoria vaginalis (Monochoria vaginalis)	Q: Galium spurium, herbicidal effect (criteria of Test Example 1) (Galium spurium)	Effect on crop grade, g: rapeseed (rapeseed [1])	Effect on crop grade, f: beet (beet)	Herbicidal effect grade, H: Echinochloa crus-galli var. crus-galli [2]	Herbicidal effect grade, I: Avena fatua (Avena fatua [5])	Herbicidal effect grade, K: Lolium multiflorum Lam. (Lolium multiflorum Lam. [6])	Herbicidal effect grade, J: Alopecurus myosuroides (Alopecurus myosuroides)	Effect on crop grade, b: directly sowed rice plant (rice)	Herbicidal effect grade, F: Digitaria ciliaris (Digitaria ciliaris [10])	further results
CON=C(C)CC1CC(O)=C(c2c(C)cc(-c3ccc(Cl)cc3F)cc2C)C1=O (stereo not drawn) [6-084]	4 (Herbicidal ratio of 70% or higher and lower than 90%)	5 (Herbicidal ratio of 90% or more (almost completely withered))	4 (Herbicidal ratio of 70% or higher and lower than 90%)	4 (Herbicidal ratio of 70% or higher and lower than 90%)	5 (Herbicidal ratio of 90% or more (almost completely withered))	4 (Herbicidal ratio of 70% or higher and lower than 90%)	5 (Herbicidal ratio of 90% or more (almost completely withered))	5 (Herbicidal ratio of 90% or more (almost completely withered))	3 (Herbicidal ratio of 40% or higher and lower than 70%)	0 (Herbicidal ratio of 5% or lower (almost no effect))	3 (Herbicidal ratio of 40% or higher and lower than 70%)									g: rapeseed, effect on crop grade (rapeseed [1]): 1 (Herbicidal ratio of 5% or higher and lower than 20%); f: beet, effect on crop grade (beet): 0 (Herbicidal ratio of 5% or lower (almost no effect)); H: Echinochloa crus-galli var. crus-galli, herbicidal effect grade [2]: 5 (Herbicidal ratio of 90% or more (almost completely withered)); I: Avena fatua, herbicidal effect grade (Avena fatua [5]): 5 (Herbicidal ratio of 90% or more (almost completely withered)); M: Abutilon theophrasti, herbicidal effect (criteria of Test Example 1) (Abutilon theophrasti): 3 (Herbicidal ratio of 40% or higher and lower than 70%); K: Lolium multiflorum Lam., herbicidal effect grade (Lolium multiflorum Lam. [6]): 5 (Herbicidal ratio of 90% or more (almost completely withered)); J: Alopecurus myosuroides, herbicidal effect grade (Alopecurus myosuroides): 5 (Herbicidal ratio of 90% or more (almost completely withered)); F: Digitaria ciliaris, herbicidal effect (criteria of Test Example 1) (Digitaria ciliaris [7]): 5 (Herbicidal ratio of 90% or more (almost completely withered)); b: directly sowed rice plant, effect on crop grade (rice): 2 (Herbicidal ratio of 20% or higher and lower than 40%); N: Amaranthus retroflexus, herbicidal effect (criteria of Test Example 1) (Amaranthus retroflexus): 3 (Herbicidal ratio of 40% or higher and lower than 70%); F: Digitaria ciliaris, herbicidal effect grade (Digitaria ciliaris [10]): 5 (Herbicidal ratio of 90% or more (almost completely withered))
CON=C(C)CC1CC(OC(=O)N2CCOCC2)=C(c2c(C)cc(-c3ccc(Cl)cc3F)cc2C)C1=O (stereo not drawn) [6-089]	4 (Herbicidal ratio of 70% or higher and lower than 90%)	4 (Herbicidal ratio of 70% or higher and lower than 90%)	4 (Herbicidal ratio of 70% or higher and lower than 90%)	4 (Herbicidal ratio of 70% or higher and lower than 90%)	5 (Herbicidal ratio of 90% or more (almost completely withered))	4 (Herbicidal ratio of 70% or higher and lower than 90%)	5 (Herbicidal ratio of 90% or more (almost completely withered))	5 (Herbicidal ratio of 90% or more (almost completely withered))	4 (Herbicidal ratio of 70% or higher and lower than 90%)	3 (Herbicidal ratio of 40% or higher and lower than 70%)	3 (Herbicidal ratio of 40% or higher and lower than 70%)	0 (Herbicidal ratio of 5% or lower (almost no effect))	0 (Herbicidal ratio of 5% or lower (almost no effect))	1 (Herbicidal ratio of 5% or higher and lower than 20%)	0 (Herbicidal ratio of 5% or lower (almost no effect))	3 (Herbicidal ratio of 40% or higher and lower than 70%)	2 (Herbicidal ratio of 20% or higher and lower than 40%)	0 (Herbicidal ratio of 5% or lower (almost no effect))	5 (Herbicidal ratio of 90% or more (almost completely withered))	
CON=C(C)CC1CC(O)=C(c2c(F)cc(Br)cc2OC)C1=O (stereo not drawn) [6-096]	1 (Herbicidal ratio of 5% or higher and lower than 20%)	5 (Herbicidal ratio of 90% or more (almost completely withered))	4 (Herbicidal ratio of 70% or higher and lower than 90%)	3 (Herbicidal ratio of 40% or higher and lower than 70%)	5 (Herbicidal ratio of 90% or more (almost completely withered))	3 (Herbicidal ratio of 40% or higher and lower than 70%)	5 (Herbicidal ratio of 90% or more (almost completely withered))	3 (Herbicidal ratio of 40% or higher and lower than 70%)	1 (Herbicidal ratio of 5% or higher and lower than 20%)	0 (Herbicidal ratio of 5% or lower (almost no effect))	0 (Herbicidal ratio of 5% or lower (almost no effect))	0 (Herbicidal ratio of 5% or lower (almost no effect))	0 (Herbicidal ratio of 5% or lower (almost no effect))	4 (Herbicidal ratio of 70% or higher and lower than 90%)	3 (Herbicidal ratio of 40% or higher and lower than 70%)	5 (Herbicidal ratio of 90% or more (almost completely withered))	3 (Herbicidal ratio of 40% or higher and lower than 70%)	5 (Herbicidal ratio of 90% or more (almost completely withered))	4 (Herbicidal ratio of 70% or higher and lower than 90%)	
COc1cc(Br)cc(F)c1C1=C(O)CC(CC(C)=O)C1=O (stereo not drawn) [7-029]	0 (Herbicidal ratio of 5% or lower (almost no effect))	5 (Herbicidal ratio of 90% or more (almost completely withered))	1 (Herbicidal ratio of 5% or higher and lower than 20%)	0 (Herbicidal ratio of 5% or lower (almost no effect))	3 (Herbicidal ratio of 40% or higher and lower than 70%)	2 (Herbicidal ratio of 20% or higher and lower than 40%)		3 (Herbicidal ratio of 40% or higher and lower than 70%)	0 (Herbicidal ratio of 5% or lower (almost no effect))		0 (Herbicidal ratio of 5% or lower (almost no effect))	0 (Herbicidal ratio of 5% or lower (almost no effect))	0 (Herbicidal ratio of 5% or lower (almost no effect))	2 (Herbicidal ratio of 20% or higher and lower than 40%)	0 (Herbicidal ratio of 5% or lower (almost no effect))	3 (Herbicidal ratio of 40% or higher and lower than 70%)	1 (Herbicidal ratio of 5% or higher and lower than 20%)	1 (Herbicidal ratio of 5% or higher and lower than 20%)	0 (Herbicidal ratio of 5% or lower (almost no effect))	b (directly sowed rice plant) effect on crop grade ([9]; Table 24): 0 (Herbicidal ratio of 5% or lower (almost no effect))
